For 87 compounds, melting point results are on record in a melting point compilation (Tetko et al.; mined from patent text by program, amines drawn as free bases though some values may be those of a salt).

Usually melting point stands for the temperature of the solid-liquid transition. The compound `CCc1noc(-c2cn(-c3cccc(OC4CCCC4)c3)cn2)n1` had a melting point of 132 °C.

In turn, `CCCCc1ncc(/C=C(\Cc2cc(OC)cs2)C(=O)O)n1Cc1ccccc1Cl` yielded a melting point of 170 to 171 °C.

`CCC(C(O)c1ccc(Cl)cc1)n1ncn(-c2ccc(N3CCN(c4ccc(O)cc4)CC3)cc2)c1=O` (configuration not stated) returned a melting point of 270 °C.

With `Cc1cc(CCCCC(=O)O)no1`, the melting point was in the range of 58 to 60 °C.

Compound `CCCNCCc1ccc(NS(=O)(=O)c2ccc(Cl)cc2Cl)cc1` showed a melting point of 165 to 168 °C.

Compound `CCc1nc2c(c(C)c(C)n3nnnc23)n1CCOCCNS(C)(=O)=O` came in with a melting point of 216 to 218 °C.

For `CC1CCN(c2ccc(Nc3ncc4c(n3)S/C(=C/c3ccc([N+](=O)[O-])cc3)C(=O)N4)cc2)CC1`, the melting point was 280 to 282 °C.

`CCOc1ccc2c(c1)c(C[C@H](C)N)c1n2CCC1`: the melting point lay in the range of 101 to 102 °C.

In turn, `CC(C)c1cn(C(C)(C)C(=O)N(C)C)nc1-c1ccccc1Cl` registered a melting point of 86 to 88 °C.

`Cn1ccc2cc(/C=C/C3=CCN(Cc4ccccc4)CC3)ccc21` showed a melting point of 138 °C.

In the case of `CC(=O)Nc1cc2c(cc1[N+](=O)[O-])OC(C)(C)[C@@H](Br)[C@@H]2O` (relative stereo), the melting point is 198 to 200 °C.

In turn, `C#Cc1ccc(C(=C2CC(C)(C)CC(C)(C)C2)c2ccc(O)cc2)cc1` had a melting point of 138 to 139 °C.

`CC(=O)NC(C)(C(=O)O)C(C)C` (configuration not stated): the melting point fell in the range of 189 to 190 °C.

`CCc1cc(C(=O)c2ccccc2Cl)c(-n2c(C)nnc2CNC(=O)c2ccccc2)s1` showed a melting point of 160 to 161 °C.

Consider `OCCN(Cc1ccccc1)CC1(O)CCN(CCCc2c[nH]c3ccc(-n4cnnc4)cc23)CC1`, for which the melting point fell in the range of 75 to 78 °C.

As to `COC(=O)c1cc(N(CCBr)CCBr)c(S(C)(=O)=O)cc1[N+](=O)[O-]`, the melting point is 161 to 162 °C.

On to `CCOc1nnc(COc2ccc(Oc3cccc(Cl)n3)cc2)s1`, for which the melting point lay within 92 to 94 °C.

As for `CC(CNC(=S)Nc1ccc(N2CCCCC2)cc1)N(Cc1ccc(Cl)c(Cl)c1)c1ccc(Br)cn1` (configuration not stated), the melting point lay within 125 to 127 °C.

Regarding `COc1cc2c(cc1C)C(CCCN1CCN(C)CC1)(c1ccccc1F)C(=O)N2S(=O)(=O)c1ccc(OC(C)C)cc1` (configuration not stated), the melting point was determined as 70 °C.

On to `Cn1cnc2c([N+](=O)[O-])cc(Br)cc21`, for which the melting point was found to be 198 °C.

Compound `OCCNc1ccc2nnn(Cc3ccc4ncccc4c3)c2n1` showed a melting point of 184 to 186 °C.

Regarding `O=c1oc2c(c(O)c1C(c1ccccc1)C1CC1)CCCCC2C(O)C1CC1` (configuration not stated), the melting point is 88 to 90 °C.

`COc1c(-c2cc3c(s2)C(O)CC(C)(C)C3)ccc2c(=O)c(C(=O)O)cn(C3CC3)c12` (configuration not stated) returned a melting point of 182 to 183 °C.

`CS(=O)(=O)c1ccc(-c2cnn(-c3ccc(F)cc3)c(=O)c2-c2ccc(Cl)cc2)cc1` had a melting point of 195 to 197 °C.

`CCCCC[C@H]1CC[C@H](CC[C@H]2CC[C@H](C#N)CC2)CC1` displayed a melting point of 56.3 °C.

`C=C(c1ccc(OC)cc1)c1ccc(OC)cc1` yielded a melting point of 137 °C.

The compound `Cc1nc(Sc2cc(C(=O)O)nc3ccccc23)sc1CC(=O)O` gave a melting point of 219 to 220 °C.

Compound `COc1ccc(-c2ccc(NC(=O)OC(C)(C)C)cc2)cc1` showed a melting point of 142 to 147 °C.

`CCS(=O)CCC(=O)NNC(=O)N1Cc2ccccc2Oc2ccc(Cl)cc21` (configuration not stated) yielded a melting point of 185 to 188 °C.

On to `CS(=O)(=O)OC(c1ccc(C(OS(C)(=O)=O)(C(F)(F)F)C(F)(F)F)cc1)(C(F)(F)F)C(F)(F)F`, for which the melting point came to 151 °C.

`Cc1ccc2c3c(c(=O)oc2c1)CN(CCN1CC2CCCC(C2)C1)CC3` showed a melting point of 150 to 152 °C.

For `N#CC(C(=O)c1cc(F)c(Cl)cc1Cl)=C(N)C1CC1`, the melting point worked out at 95 °C.

For the compound `Cc1oc2ccccc2c1OC(C)(C)C#N`, the melting point is 53 to 55 °C.

`COC(=O)C1=C(OS(=O)(=O)c2ccc([N+](=O)[O-])cc2)C(=O)O[C@@H]1C` registered a melting point of 123 to 124 °C.

For `OCCc1coc2c(OC3CCCCO3)cccc12` (configuration not stated), the melting point is 74 to 76 °C.

In turn, `COc1ccc(S(=O)(=O)N2Cc3[nH]c4ccccc4c3CC2C(=O)O)cc1` (configuration not stated) gave a melting point of 154 °C.

In turn, `CC(C)Cn1nc(OCCCCc2ccc(OC(C)C)cc2Oc2ncc(C(F)(F)F)cc2Cl)cc1CCC(=O)O` came in with a melting point of 122 to 123 °C.

With `CCOc1nc(N)nc(N2CCc3ccccc3CC2)c1C#N`, the melting point is 195 to 203 °C.

Consider `COc1ccccc1NC(=O)Nc1ccc(CC(=O)NC(CC(C)C)c2ncc(CCC(=O)O)s2)cc1` (configuration not stated), for which the melting point lay within 197 to 198 °C.

For the compound `COCN(c1cccc2cc(C(=O)/N=C/N(C)C)n(COC)c12)S(=O)(=O)c1cccs1`, the melting point was 146 to 147 °C.

Consider `CC(=C(Cl)Cl)c1cc(N)c(S(N)(=O)=O)cc1S(N)(=O)=O`, for which the melting point was 199 to 202 °C.

In turn, `O=c1ccc2c(-n3cncn3)nccc2[nH]1` came in with a melting point above 300 °C.

Take `CCOC(=O)c1c(Cl)nc2cscc2c1Cl`: the melting point came to 79 °C.

`COc1ccc(C(=O)N[C@H]2CCN(C)C[C@H]2c2ccc(OC)c(OC)c2)cc1` (relative stereo): the melting point was in the range of 223 to 226 °C.

On to `O=C(OCC(Cl)(Cl)Cl)c1ncn2c1CN=C(c1ccccc1)c1cc(Br)ccc1-2`, for which the melting point was 113 to 116 °C.

With `C[C@H](Cc1ccc2c(c1)cc(C(=O)O)n2Cc1ccccc1)NC[C@H](O)c1cccc(Cl)c1`, the melting point lay within 128 to 130 °C.

With `COc1cccc2c(CCCN(C3CCC3)C3COc4c(F)ccc(C(N)=O)c4C3)coc12` (configuration not stated), the melting point fell in the range of 131 to 140 °C.

In turn, `COc1ccc(-c2cc(-c3ccccc3)[nH]c2C(=O)Nc2cccc(CC(=O)NO)c2)cc1` came in with a melting point of 205 to 206 °C.

Compound `CCc1nc2c(c3c1[nH]c1ccccc13)C(=O)CC(C)(C)C2` came in with a melting point of 188 to 190 °C.

Compound `C=CCc1cc(OCC(=O)OCC)ccc1O` yielded a melting point of 52.8 °C.

`Cn1cc2c(=O)c(C(=O)c3ccccc3)cn(C)c2n1` returned a melting point of 272 to 274 °C.

`CS(=O)(=O)Nc1ccc(CCCOCCCCCCNCC(O)c2cc(Cl)c(N)c(Cl)c2)cc1` (configuration not stated) displayed a melting point of 62 to 64 °C.

`O=c1cc(Sc2ccccc2)c(-c2nc[nH]n2)nn1-c1ccccc1`: the melting point lay within 245 to 250 °C.

`CCCC(C)c1nn(-c2ccc(C(F)(F)F)cn2)cc1CCCO` (configuration not stated): the melting point fell in the range of 72 to 73 °C.

Compound `O=C(O)CCCCCNC(=O)C1Cc2ccccc2N1S(=O)(=O)c1ccc(-c2cccc(C(F)(F)F)c2)cc1` (configuration not stated) gave a melting point of 50 °C.

Regarding `CN(CCCCNC(=O)c1cc2ccccc2s1)C1CCc2ncsc2C1` (configuration not stated), the melting point was found to be 105 °C.

Regarding `CSc1cc2c(N3CCc4ccc(Cl)cc43)ncnc2cc1Cl`, the melting point lay in the range of 167 to 168 °C.

In turn, `COC(=O)CCSc1cc(=O)c2c(O)cc(O)c(C3CCN(C)CC3O)c2o1` (configuration not stated) yielded a melting point of 78 °C.

As to `CCCc1c(OCCCSc2ccc(C(C)=O)c(OCCCC(=O)OCC)c2CCC)ccc(C(C)=O)c1O`, the melting point is 87 to 88 °C.

`CCCCCCCCCC[C@@H]1C(=O)OC(c2ccccc2)=C[C@@H]1C(=O)OC` registered a melting point of 108 to 111 °C.

Consider `CNCCC1CN(c2c(F)cc3c(=O)c(C(=O)O)cn(C4CC4)c3c2F)CCO1` (configuration not stated), for which the melting point is 243 to 251 °C.

For the compound `CN(CC#Cc1cc(CN2CCOCC2)cc2c(=O)c(C(=O)NCc3ccc(Cl)cc3)cn(C)c12)CC(O)CO` (configuration not stated), the melting point was in the range of 140 to 142 °C.

Compound `COCc1nc(C(C)(C)O)c(C(=O)OCOC(=O)C(C)(C)C)n1Cc1ccc(-c2ccccc2-c2nnn[nH]2)cc1` yielded a melting point of 71 to 72 °C.

Turning to `CC(=O)SCC(=O)C1CCC2C3CCC4CC(O)C(N5CCOC(C)(C)C5)CC4(C)C3C(=O)CC12C` (configuration not stated), the melting point was 181 to 182 °C.

Compound `CCOP(=O)(OCC)C1C(=O)NC(=O)N1C` (configuration not stated) came in with a melting point of 95 to 96 °C.

In turn, `NC(CC(=O)O)c1ccc2c(c1)OCCO2` (configuration not stated) returned a melting point of 222 to 223 °C.

As to `C=C(CCC(C)C1CCC2C3=C(C(=O)CC21C)C1(C)CCC(=O)C(C)C1CC3O)C(C)C(=O)O` (configuration not stated), the melting point is 196 to 198 °C.

For the compound `Cc1oc(-c2ccccc2)nc1CCOc1ccc(CC(Nc2ccccc2C(=O)c2ccccc2C(=O)O)C(=O)O)cc1` (configuration not stated), the melting point lay within 107 to 110 °C.

In turn, `CN1C(=O)C(NC(=O)NCc2ccccc2)N=C(c2ccccc2)c2ccccc21` (configuration not stated) showed a melting point of 240 to 242 °C.

Consider `CON=Cc1ccc(-c2ccccc2NC(=O)c2c(C)nn(C)c2F)cc1`, for which the melting point fell in the range of 114 to 116 °C.

`Cc1ccc2nc(-c3ccc(-c4ccccc4)cc3)c(O)c(C(=O)O)c2c1` displayed a melting point of 236 to 238 °C.

`O=C1CC2(CCCC2)CC(=O)N1CCCCOc1cccc2c1SCCC2` showed a melting point of 69 °C.

`NNC(=O)Nc1ccc(O)cc1` yielded a melting point of 184 to 186 °C.

Compound `CC12CCC3C(CCC4CC(O)CCC43C)C1CCC2S` (configuration not stated) returned a melting point of 169 to 170 °C.

`CS(=O)(=O)CCC(=O)Nc1ccc(OCC(O)CO)cc1` (configuration not stated) yielded a melting point of 160 to 162 °C.

As to `COc1ccc(C(=O)Nc2ccncc2)c2c1oc1ccccc12`, the melting point was found to be 215 °C.

The compound `Cc1nn(C)c(F)c1C(=O)Nc1ccccc1C(C)CC(C)(C)C` (configuration not stated) came in with a melting point of 78 to 80 °C.

Compound `O=C(NCc1ccccc1)OCCc1noc(-c2ccc(CN3CCCCCC3)s2)n1` came in with a melting point of 138 to 139 °C.

For the compound `COC(=O)N(CC(=O)O)C(=O)c1c(OCC(F)(F)F)ccc2c(C(F)(F)F)c(OC)ccc12`, the melting point was 186 to 187 °C.

Regarding `C[Si](C)(C)NS(C)(=O)=O`, the melting point lay in the range of 69 to 74.5 °C.

In turn, `CCCn1c(=O)n2c(=O)[nH]nc2c2c1ncn2C` came in with a melting point of 299 to 301 °C.

The compound `CS(=O)(=O)c1ccnc(Oc2ccccc2)n1` came in with a melting point of 86 to 87 °C.

`O=C1C(Br)CCN1c1ccc(OCc2ccccc2)cc1` (racemic) had a melting point of 125 to 126 °C.

Turning to `CSc1ccc(-c2cc(C#N)c(=O)[nH]c2C)cc1`, the melting point was 275 to 276 °C.

`Oc1ccc2c(c1)COc1cc3cc(O)ccc3cc1-2` yielded a melting point of 231 to 233 °C.

In turn, `CCOC(=O)c1sc(Cl)nc1C(F)(F)F` registered a melting point of 58 to 59 °C.

For `CCNn1nnnc1S`, the melting point fell in the range of 90 to 91 °C.
